Measurements as given in PMC3751085, “A simple methodology to assess endolysosomal protease activity involved in antigen processing in human primary cells” (BMC Cell Biology, 2013).
Read-outs that look alike come from different tables or passages of the source.

Assays:
[1] = not given; remark: listed apart in the source
[2] = in vitro; settings: human, cells or culture medium, pH 4
[3] = Peptide degradation assay in purified cytosol from PBMC; type: in vitro ADME; settings: human, s9, amount equivalent to endolysosomes (same number of cells), 8 nM peptide in degradation buffer (20 mM HEPES, 1 mM MgCl2, 137 mM K acetate, 1 mM ATP), 37°C, % original peptide remaining by RP-HPLC, representative of two replicates
[4] = human, cells or culture medium

Row | Compound | fragments of the crude lysate degradation similar to those produced in endolysosomes, pH 4.0 (pH 4) [%] | number of peptide fragments identified after degradation in crude lysate (pH 4) [peptides] | fragments of the crude lysate degradation similar to the endolysosomal fraction, pH 5.5 (pH 5.5) [%] | number of peptide fragments identified after degradation in endolysosomes ([1]; pH 4) [peptides] | half-life [2] [min] | half-life at 8 nM [3] [min] | half-life of the peptide in endolysosomes at pH 4.0 ([1]; purified endolysosomes, pH 4.0, 37°C, RP-HPLC, data not shown) [min] | half-life [4] [min]
1 | KVVEEKAFSPEVIPMFAAL [5-KF11-3] | 84.75 | 32 | 76.2 | 39 |  |  |  | 
2 | CC[C@H](C)[C@H](NC(=O)[C@@H](NC(=O)[C@H](CCC(=O)O)NC(=O)[C@@H]1CCCN1C(=O)[C@H](CO)NC(=O)[C@H](Cc1ccccc1)NC(=O)[C@H](C)NC(=O)[C@@H](N)CCCCN)C(C)C)C(=O)N1CCC[C@H]1C(=O)N[C@@H](CCSC)C(=O)N[C@@H](Cc1ccccc1)C(=O)O [B57KF11] |  |  |  |  | 6 | 36 | 8 | 8
